Test results from US4999444A, “Novel neutral mixed ligand platinum(II) and platinum(IV) complexes” (Warner-Lambert Co., priority 1989, dated 1991).
Where two headings read alike, the source gives them in different places.

Key:
L1210S = test: In vitro cytotoxicity (ID50, 72 h growth inhibition), L1210S; format: cell-based, murine
Experimental: (§1) ID50 values are the concentration of complex required to inhibit the in vitro growth of treated cells to a level of 50% of that for untreated cells over a 72-hour period. The cell lines are suspended in appropriate media at a concentration which results in the cells remaining in log phase growth throughout the treatment period. Serially diluted drug is added to duplicate wells containing the cell growth. After 72 hours of incubation of the cell lines in 5% CO2, the cells are counted and the ID50 values determined.

L-1210 Leukemia = test: In vivo antitumor activity in mice, L-1210 Leukemia; design: species or system mice (murine leukemia); settings: IP, Days 3, 7, 11; for % T/C: best responses
From the text: (§2) The screening tests employing these cell lines are described in Geran et al., "Protocols for Screening Chemical Agents and Natural Products Against Animal Tumors and Other Biological Systems," Cancer Chemotherapy Reports, Part 3, Vol. 3, No. 2, pages 1-85 (1972). The L1210 and P388 screening methods have been cited as the best tools for predicting clinical utility of drugs in the treatment of human solid tumors as well as human leukemias and lymphomas (Venditti, "Relevance of Transplantable Animal-Tumor Systems to the Selection of New Agents for Clinical Trial," Pharmacological Basis of Cancer Chemotherapy, […] Pub. Co. (1975)).
In Table 2, the ratio of median survival time of laboratory mice which had been treated with the test compound to untreated control animals is expressed as a percentage (%T/C values). […] Data for the prior art complex cisplatin is included for comparison.
^a Inoculum: 10,000 cells (IP)
^b Schedule: Days 3, 7, 11

L1210PtR4 = test: In vitro cytotoxicity (ID50, 72 h growth inhibition), L1210PtR4; format: cell-based, murine; settings: for ID50: in vitro, 72 h
Experimental: as §1
(§3) Resistance ratio values shown in Table 1 were calculated by dividing the ID50 values against the resistant cell lines by the ID50 values against the normal cell lines. The resistance ratio values shown in the table indicate a measure of the degree of resistance of the cell line to a particular drug.

[1] = tested on: parent L1210 and P388 leukemia cell lines; test: In vivo activity against parent L1210 and P388 leukemia; design: species or system mice (murine leukemia)
From the text: as §2
(§4) In Table 2, the ratio of median survival time of laboratory mice which had been treated with the test compound to untreated control animals is expressed as a percentage (%T/C values). Laboratory mice were implanted intraperitonealy with the L1210 murine leukemia cell line on Day 0 and treated with intraperitoneal injections of representative platinum complexes of the present invention on Days 3 and 7 at the dosages indicated. Data for the prior art complex cisplatin is included for comparison.

L1210DACH = test: In vitro cytotoxicity (ID50, 72 h growth inhibition), L1210DACH (Pt(DACH)Cl2-resistant L1210); format: cell-based, murine; settings: for ID50: in vitro, 72 h
Experimental: as §1, §3

[2] = tested on: L1210 and P388 murine leukemia cell lines; test: Antitumor activity in L1210 and P388 murine leukemia, in vitro and in vivo; settings: in vitro and in vivo test results
Experimental: as §1, §2
In Table 2, the ratio of median survival time of laboratory mice which had been treated with the test compound to untreated control animals is expressed as a percentage (%T/C values). […]

P388Pt4 = test: In vitro cytotoxicity (ID50, 72 h growth inhibition), P388Pt4; format: cell-based, murine; settings: for ID50: in vitro, 72 h
Experimental: as §1, §3

L1210DDP5 = test: In vitro cytotoxicity (ID50, 72 h growth inhibition), L1210DDP5; format: cell-based, murine; settings: for ID50: in vitro, 72 h
Experimental: as §1, §3

[3] = tested on: L-1210/Pt Leukemia (Cisplatin Resistant); test: In vivo antitumor activity in mice, L-1210/Pt Leukemia (Cisplatin Resistant); design: species or system mice (murine leukemia); settings: IP, Days 3, 7, 11; for % T/C: best responses
P388S = test: In vitro cytotoxicity (ID50, 72 h growth inhibition), P388S; format: cell-based, murine
Experimental: as §1

[4] = tested on: cisplatin-resistant cells; test: Activity against cisplatin-resistant cells in vitro and in vivo; design: species or system murine
Experimental: as §1, §3, §4

[5] = tested on: P-388/Pt (Cisplatin Resistant); test: In vivo antitumor activity, P-388 (Lymphocytic Leukemia), P-388/Pt (Cisplatin Resistant); design: species or system mice (murine leukemia); settings: IP, Days 1, 5, 9; for % T/C: best responses
From the text: as §2
^g Schedule: Days 1, 5, 9

[6] = ID50 resistant line / ID50 normal line, 4320 min
[7] = first pair of lines, 3.7 mg/kg/injection
[8] = second pair of lines, 3.7 mg/kg/injection
[9] = first pair of lines, 5.0 mg/kg/injection
[10] = second pair of lines, 5.0 mg/kg/injection

SMILES: [Cl][Pt]1([Cl])[NH]C2CCC(CC2)[NH]1 [Example 1, [SP-4-2-(c-is)]-Dichloro(1,4-cyclohexanediamine-N,N')-platinum]
- ID50 (L1210S): 0.248 µg/mL
- 60 Day Survivors (L-1210 Leukemia; 0.8 mg/kg/injection): 0/6
- Log10 Kill Gross (L-1210 Leukemia; 0.8 mg/kg/injection): 3.4
- Log10 Kill Net (L-1210 Leukemia; 0.8 mg/kg/injection): -1.5
- MLS (median life span) (L-1210 Leukemia; 0.8 mg/kg/injection): 13.0 days
- % T/C (L-1210 Leukemia; 0.8 mg/kg/injection): 130%
- 60 Day Survivors (L-1210 Leukemia; 1.5 mg/kg/injection): 0/6
- Log10 Kill Gross (L-1210 Leukemia; 1.5 mg/kg/injection): 13.1
- Log10 Kill Net (L-1210 Leukemia; 1.5 mg/kg/injection): 4.6
- MLS (median life span) (L-1210 Leukemia; 1.5 mg/kg/injection): 23.0 days
- % T/C (L-1210 Leukemia; 1.5 mg/kg/injection): 217%
- 60 Day Survivors (L-1210 Leukemia; 3.0 mg/kg/injection): 1/6
- Log10 Kill Gross (L-1210 Leukemia; 3.0 mg/kg/injection): 11.5
- Log10 Kill Net (L-1210 Leukemia; 3.0 mg/kg/injection): 3.1
- MLS (median life span) (L-1210 Leukemia; 3.0 mg/kg/injection): 21.5 days
- % T/C (L-1210 Leukemia; 3.0 mg/kg/injection): 203%
- 60 Day Survivors (L-1210 Leukemia; 6.3 mg/kg/injection): 0/6
- Log10 Kill Gross (L-1210 Leukemia; 6.3 mg/kg/injection): 0.1
- Log10 Kill Net (L-1210 Leukemia; 6.3 mg/kg/injection): -1.9
- MLS (median life span) (L-1210 Leukemia; 6.3 mg/kg/injection): 10.7 days
- % T/C (L-1210 Leukemia; 6.3 mg/kg/injection): 101%
- Fold resistance (resistance ratio) (L1210PtR4; [6]): 4.9 fold
- ID50 (L1210PtR4): 1.21 µg/mL
- effectiveness against parent L1210 and P388 leukemia in vivo vs cisplatin [1]: equally effective or superior to cisplatin
- cross resistance to Pt(DACH)Cl2-resistant L1210 cells in culture (L1210DACH): four
- Fold resistance (resistance ratio) (L1210DACH; ID50 resistant line / ID50 normal line, L1210DACH, 4320 min): 4.3 fold
- ID50 (L1210DACH; L1210DACH): 1.08 µg/mL
- antitumor activity, potency and response vs cisplatin [2]: superior to cisplatin both in potency and response
- Fold resistance (resistance ratio) (P388Pt4; [6]): 30 fold
- ID50 (P388Pt4): 1.43 µg/mL
- Fold resistance (resistance ratio) (L1210DDP5; [6]): 2.7 fold
- ID50 (L1210DDP5): 0.663 µg/mL
- 60 Day Survivors ([3]; 0.8 mg/kg/injection): 0/6
- Log10 Kill Gross ([3]; 0.8 mg/kg/injection): 2.1
- Log10 Kill Net ([3]; 0.8 mg/kg/injection): -2.2
- MLS (median life span) ([3]; 0.8 mg/kg/injection): 12.8 days
- % T/C ([3]; 0.8 mg/kg/injection): 126%
- 60 Day Survivors ([3]; 1.5 mg/kg/injection): 0/6
- Log10 Kill Gross ([3]; 1.5 mg/kg/injection): 4.5
- Log10 Kill Net ([3]; 1.5 mg/kg/injection): -1.7
- MLS (median life span) ([3]; 1.5 mg/kg/injection): 15.7 days
- % T/C ([3]; 1.5 mg/kg/injection): 154%
- 60 Day Survivors ([3]; 3.0 mg/kg/injection): 2/6
- Log10 Kill Gross ([3]; 3.0 mg/kg/injection): 5.5
- Log10 Kill Net ([3]; 3.0 mg/kg/injection): -1.0
- MLS (median life span) ([3]; 3.0 mg/kg/injection): 17.0 days
- % T/C ([3]; 3.0 mg/kg/injection): 167%
- 60 Day Survivors ([3]; 6.3 mg/kg/injection): 0/6
- Log10 Kill Gross ([3]; 6.3 mg/kg/injection): 0.1
- Log10 Kill Net ([3]; 6.3 mg/kg/injection): -2.7
- MLS (median life span) ([3]; 6.3 mg/kg/injection): 10.3 days
- % T/C ([3]; 6.3 mg/kg/injection): 101%
- ID50 (P388S): 0.047 µg/mL
- cross resistance to cisplatin [4]: some degree of cross resistance to cisplatin
- effectiveness against cisplatin-resistant cells vs cisplatin [4]: more effective than cisplatin
- Log10 Kill Net [5, 7]: 5.4
- % T/C [5, 7]: 234%
- Log10 Kill Net [5, 8]: 1.9
- % T/C [5, 8]: 177%

SMILES: N.N.[Cl][Pt][Cl] [Cisplatin, cis-diaminedichloroplatinum(II), reference compound]
- ID50 (L1210S): 0.375 µg/mL
- 60 Day Survivors (L-1210 Leukemia; 4.0 mg/kg/injection): 1/6
- Log10 Kill Gross (L-1210 Leukemia; 4.0 mg/kg/injection): 9.4
- Log10 Kill Net (L-1210 Leukemia; 4.0 mg/kg/injection): 0.9
- MLS (median life span) (L-1210 Leukemia; 4.0 mg/kg/injection): 19.5 days
- Weight Change (L-1210 Leukemia; 4.0 mg/kg/injection): 1.0 grams
- % T/C (L-1210 Leukemia; 4.0 mg/kg/injection): 184%
- 60 Day Survivors (L-1210 Leukemia; 6.0 mg/kg/injection): 1/6
- Log10 Kill Gross (L-1210 Leukemia; 6.0 mg/kg/injection): 8.3
- Log10 Kill Net (L-1210 Leukemia; 6.0 mg/kg/injection): -0.1
- MLS (median life span) (L-1210 Leukemia; 6.0 mg/kg/injection): 18.5 days
- Weight Change (L-1210 Leukemia; 6.0 mg/kg/injection): -1.9 grams
- % T/C (L-1210 Leukemia; 6.0 mg/kg/injection): 175%
- ID50 (L1210PtR4): 7.84 µg/mL
- ID50 (L1210DACH; L1210DACH): 0.52 µg/mL
- ID50 (P388Pt4): 10.0 µg/mL
- ID50 (L1210DDP5): 4.11 µg/mL
- 60 Day Survivors ([3]; 4.0 mg/kg/injection): 0/6
- Log10 Kill Gross ([3]; 4.0 mg/kg/injection): 0.7
- Log10 Kill Net ([3]; 4.0 mg/kg/injection): -2.5
- MLS (median life span) ([3]; 4.0 mg/kg/injection): 11.1 days
- % T/C ([3]; 4.0 mg/kg/injection): 109%
- 60 Day Survivors ([3]; 6.0 mg/kg/injection): 0/6
- Log10 Kill Gross ([3]; 6.0 mg/kg/injection): 1.5
- Log10 Kill Net ([3]; 6.0 mg/kg/injection): -2.4
- MLS (median life span) ([3]; 6.0 mg/kg/injection): 12.0 days
- Weight Change ([3]; 6.0 mg/kg/injection): -3.7 grams
- % T/C ([3]; 6.0 mg/kg/injection): 118%
- ID50 (P388S): 0.128 µg/mL
- Log10 Kill Net [5, 9]: 6.8
- % T/C [5, 9]: 261%
- Log10 Kill Net [5, 10]: -1.5
- % T/C [5, 10]: 132%

SMILES: NC1CCCCC1N.[Cl][Pt][Cl] (stereo not drawn) [[Pt(trans-l-DACH)Cl2], [SP-4-2-(1R-trans)]-dichloro(1,2-cyclohexanediamine-N,N')platinum, reference compound]
- ID50 (L1210S): 0.059 µg/mL
- ID50 (L1210PtR4): 0.161 µg/mL
- cross resistance to Pt(DACH)Cl2-resistant L1210 cells in culture (L1210DACH; 4320 min): 77 fold
- ID50 (L1210DACH; L1210DACH): 4.57 µg/mL
- ID50 (P388Pt4): 0.83 µg/mL
- ID50 (L1210DDP5): 0.164 µg/mL
- ID50 (P388S): 0.077 µg/mL
